# In patent publication US6852722B2, “Compositions and methods for stimulating gastrointestinal mobility” (Pfizer Inc., priority 2000, dated 2005):
# System: Male CD Sprague-Dawley rats
# Assay: Gastrointestinal transit in rats (51Cr marker: gastric emptying and geometric center)
# Format: in vivo, rat
# Conditions: for effect on gastrointestinal transit: 0.1 mg/kg oral; for % Gastric Emptying: 51Cr marker 15 min after dose, killed 20 min later; for % Gastric Emptying / Geometric Center: mean ± SEM; for Geometric Center: stomach = segment 0, intestine segments 1-10; for increase in gastric emptying / increase in geometric center (transit through stomach and small intestine): relative to vehicle
# Experimental: Male CD Sprague-Dawley rats (175-225 grams) are fitted with tail cups to prevent coprophagy and fasted overnight. The next day the rats are orally given either vehicle (water, 5 ml/kg) or a solution of the test compound in water at doses of 0.1, 0.5, 1 or 5 mg/kg p.o. Fifteen minutes later, the rats are given 1.0 ml of an evaporated milk solution containing 20,000 cpm of ^51Cr as sodium chromate.
# The rats are killed 20 minutes after administration of the radioactive marker. The gastroesophageal, pyloric, and ileocecal junctions are ligated, the stomach is removed and the small intestine is divided into ten equal lengths. The stomach and each length of intestine are assayed for radioactivity with a gamma counter. Gastric emptying is determined for each rat by comparing the amount of radioactivity in the intestine relative to the total in the intestine plus stomach. In addition, the geometric center of the distribution of the radioactive marker is used to measure the overall transit rate through the stomach and intestine. Geometric center is calculated as: Σ((fraction of ^51Cr per segment)×(segment number)). For these calculations the stomach is segment number 0 while the ten intestinal segments are designated 1 to 10. Thus, a geometric center of 0.0 would indicate that the entire load of ^51Cr had remained in the stomach.
# Results from test compound-treated rats and vehicle-treated rats are compared using one-way ANOVA and Dunnett's test for simultaneous multiple comparisons. The effect of the test compound on gastrointestinal transit in rats is evaluated by measuring gastric emptying and the geometric center of distribution of an orally administered radioactive marker.
Compound,effect on gastrointestinal transit,% Gastric Emptying (0.1 mg/kg p.o.),Geometric Center (0.1 mg/kg p.o.),increase in gastric emptying (0.5 mg/kg oral),increase in geometric center (transit through stomach and small intestine) (0.5 mg/kg oral),% Gastric Emptying (0.5 mg/kg p.o.),Geometric Center (0.5 mg/kg p.o.),increase in geometric center (transit through stomach and small intestine) (1 mg/kg oral),increase in gastric emptying (1.0 mg/kg oral),% Gastric Emptying (1 mg/kg p.o.),"% Gastric Emptying (1 mg/kg p.o., listed as 1st test compound)",Geometric Center (1 mg/kg p.o.),increase in geometric center (transit through stomach and small intestine) (5 mg/kg oral),increase in gastric emptying (5.0 mg/kg oral),% Gastric Emptying (5 mg/kg p.o.),"% Gastric Emptying (5 mg/kg p.o., listed as 1st test compound)",Geometric Center (5 mg/kg p.o.),"gastric emptying and transport through the upper GI tract (doses of 0.5, 1 and 5 mg/kg oral)"
"CN1N=C2CCN(C(=O)[C@@H](COCc3ccccc3)NC(=O)C(C)(C)N)C[C@@]2(Cc2ccccc2)C1=O [first test compound, 2-amino-N-(2-(3a-(R)-benzyl-2-methyl-3-oxo-2,3,3a,4,6,7-hexahydro-pyrazolo-[4,3-c]pyridin-5-yl)-1-(R)-benzyloxymethyl-2-oxo-ethyl)-isobutyramide]",no effect,62.5 ± 3.4%,2.82 ± 0.17,25%,39%,*79.0 ± 4.2%,*4.03 ± 0.26,67%,45%,92%,*91.5 ± 1.6%,*4.81 ± 0.21,68%,49%,94%,*93.7 ± 1.4%,*4.85 ± 0.19,–
CC(C)(N)C(=O)N[C@H](COCc1ccc(F)cc1F)C(=O)N1CCC2=NN(CC(F)(F)F)C(=O)[C@]2(Cc2ccccn2)C1 [second test compound],no effect,68.9 ± 3.4%,3.1 ± 0.2,21%,37%,*79.5 ± 3.6%,*3.9 ± 0.3,50%,37%,*89.9 ± 2.3%,–,*4.3 ± 0.2,42%,34%,*88.3 ± 2.4%,–,*4.1 ± 0.2,increased
